Measured values from publication PMC11432795, “Mutagenesis of the Peptide Inhibitor of ASIC3 Channel Introduces Binding to Thumb Domain of ASIC1a but Reduces Analgesic Activity” (Marine Drugs, 2024).
Positions of bridges follow the written chain, without caps; N, C: chain ends. Residues, ends and D or L forms follow the SMILES beside them. No end group written: not given here.

Legend:
[1] = cited from earlier work; for analgesic effect on thermal hypersensitivity caused by inflammation: ref [31],[32]; for analgesic effects: ref [16],[17]
Description: Selective ligands targeting specific ASIC isoforms are invaluable for structural and functional investigations. Peptide ligands sourced from various animal venoms have emerged as such tools. […] Bot ... || The 29-amino acid peptide Ugr9a-1, isolated from the venom of the northern sea anemone Urticina grebelnyi, represents a structural class of toxins termed “boundless β-hairpin”. […] While the significant involvement of ASIC3 channels in acid-induced, chronic neuropathic and inflammatory pain has been extensively reported, the role of ASIC1a remains less clear.

[2] = molecular target: T1, rat ASIC1a channel (Rattus norvegicus, UniProt P55926); test: Two-electrode voltage clamp, rat ASIC1a in X. laevis oocytes; format: cell-based; conditions: pH 5.5 stimulus, mean ± S.E.M., 5 cells
T1 construct: expressed in transfected cells; host or cells: Xenopus laevis oocytes injected with mRNA made from a pCI-rASIC1a plasmid
T1 sequence (P55926 1-526): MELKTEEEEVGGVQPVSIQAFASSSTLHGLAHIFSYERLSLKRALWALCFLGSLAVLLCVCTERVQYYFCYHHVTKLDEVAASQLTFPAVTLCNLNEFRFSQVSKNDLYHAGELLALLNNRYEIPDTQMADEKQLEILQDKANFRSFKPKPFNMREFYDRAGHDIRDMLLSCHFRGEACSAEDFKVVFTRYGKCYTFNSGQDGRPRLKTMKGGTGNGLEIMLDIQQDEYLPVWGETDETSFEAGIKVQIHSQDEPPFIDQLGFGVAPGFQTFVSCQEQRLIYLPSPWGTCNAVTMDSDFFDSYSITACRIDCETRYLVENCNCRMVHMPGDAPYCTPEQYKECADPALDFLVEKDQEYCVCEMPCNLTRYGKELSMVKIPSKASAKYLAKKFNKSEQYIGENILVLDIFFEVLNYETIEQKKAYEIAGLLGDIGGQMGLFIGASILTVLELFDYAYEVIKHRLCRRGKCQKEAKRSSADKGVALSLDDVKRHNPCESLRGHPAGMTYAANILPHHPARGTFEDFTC
Protocol: (§1) Figure 3 The effect of mutant peptides S16K and A23K on rat ASIC1a and ASIC3 channels. […] (B) Dose–response curves for the inhibitory effect of mutant peptides on ASIC1a. Each data point represents data from 5 cells. (C) Representative current traces of Ugr9-1, S16K, and A23K at a concentration of 12.5 µM on ASIC3. […] Each point represents data from 5 cells. The depicted currents were induced by a pH 5.5 stimulus following a conditioning pH of 7.4, with peptides applied for 30 s before the pH stimulus. The holding potential (Vh) was −50 mV, and the time interval between applications ranged from 1 to 2 min. Data are presented as mean ± S.E.M.
(§2) A small portion of the ovary was isolated from frogs under anesthesia induced by a 0.17% solution of procaine methanesulphonate (MS222) (Sigma), followed by treatment with collagenase (1 mg/mL) at room temperature for 2 h. Oocytes at stages IV and V, devoid of follicular membranes, were transferred to ND-96 medium (containing 96 mM NaCl, 5 mM HEPES, 2 mM KCl, 1.8 mM CaCl2, 1 mM MgCl2, pH 7.4). mRNA synthesis was performed from pcDNA3.1 vectors (Invitrogen, Carlsbad, CA, USA) containing the rat ASIC3 gene, as well as pCI vectors containing genes for rat ASIC1a, its mutant analogues, and ASIC1b. mRNA (2.5–10 ng) was then injected into the oocytes. For the ASIC1a/3 heteromeric channels, the mRNA encoding the ASIC1a and ASIC3 subunits were injected in a 1:5 ratio, respectively. Subsequently, the oocytes were incubated for 2–3 days at a temperature of 17–19 °C in ND96 medium supplemented with gentamicin and streptomycin (20 µg/mL each).
(§3) Whole-cell electrophysiological recordings of ASIC channels were conducted using a two-electrode voltage-clamp setup. Microelectrodes were filled with 3 M KCl. Recordings from oocytes were carried out at a holding potential of −50 mV, with data filtered at 10 Hz and sampled at a rate of 100 Hz using an L780M ADC (LCard, Moscow, Russia). The synchronized delivery of solutions into the chamber and recording of electrophysiological results were carried out using in-house software v.2. Activation of ASIC channels occurred through rapid pH changes in the solution, achieved by replacing the working solution in the chamber with ND96-based solutions at varying pH levels. Specifically, HEPES was substituted with 10 mM MES for pH 5.5–6.5 and MOPS for pH 6.7–7.0.
(§4) Fresh peptide solutions were meticulously prepared in ND96 buffer with a pH of 7.43 immediately before experiments, with strict control over the pH levels. Peptides were applied for 30 s at a conditioning pH of 7.43 before acid stimulation of the channel. The interval between applications was maintained at a minimum of 1.5 to 2 min.
(§5) Electrophysiological data analysis was conducted using OriginPro 2018 software (OriginLab, Northampton, MA, USA). Dose–response relationships for Ugr9a-1, S16K, and A23K peptides were fitted using a Hill function: F1(x) = A − A/(1 + (x/IC50)^nH), where F1(x) represents the amplitude of the current at concentration x of the peptide, A is the maximum amplitude of the current, IC50 is the half-maximum inhibitory concentration of the peptide, and nH is the Hill coefficient.

[3] = molecular target: T2, rat ASIC3 channel (Rattus norvegicus, UniProt O35240); test: Two-electrode voltage clamp, rat ASIC3 in X. laevis oocytes; format: cell-based; conditions: pH 5.5 stimulus, mean ± S.E.M., 5 cells
T2 construct: expressed in transfected cells; host or cells: Xenopus laevis oocytes injected with mRNA made from pcDNA3.1-rat ASIC3
T2 sequence (O35240 1-533): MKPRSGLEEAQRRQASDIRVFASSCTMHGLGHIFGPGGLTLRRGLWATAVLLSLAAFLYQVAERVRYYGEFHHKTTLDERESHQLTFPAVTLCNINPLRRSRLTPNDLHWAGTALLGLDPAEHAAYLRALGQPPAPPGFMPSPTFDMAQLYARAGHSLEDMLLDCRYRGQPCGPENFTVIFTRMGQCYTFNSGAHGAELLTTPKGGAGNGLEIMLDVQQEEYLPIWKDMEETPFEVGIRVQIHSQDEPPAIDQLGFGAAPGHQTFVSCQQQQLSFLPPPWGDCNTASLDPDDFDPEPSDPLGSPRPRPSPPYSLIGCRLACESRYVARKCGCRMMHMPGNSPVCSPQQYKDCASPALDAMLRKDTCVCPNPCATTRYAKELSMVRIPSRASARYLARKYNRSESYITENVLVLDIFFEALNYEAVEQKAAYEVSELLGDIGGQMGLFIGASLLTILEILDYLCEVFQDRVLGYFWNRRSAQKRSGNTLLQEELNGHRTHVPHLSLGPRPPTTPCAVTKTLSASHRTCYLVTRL
Protocol: as §1, §2, §3, §4, §5

[4] = tested on: ASIC1a channel; conditions: cited from earlier work
Description: Selective ligands targeting specific ASIC isoforms are invaluable for structural and functional investigations. Peptide ligands sourced from various animal venoms have emerged as such tools. […] Bot ...

[5] = tested on: ASIC1a D355A mutant channel; conditions: ref [23],[28]; cited from earlier work
Description: (§6) Electrophysiological experimentation confirmed the activity of recombinant S16K and A23K mutants against rat ASIC1a channels. […] This fact was in good agreement with molecular docking results that predicted tighter interactions of the lysine residue at position 23 with Asp355 and Glu357 residues of the channel. […] To confirm the critical role of th ...

[6] = tested on: ASIC1a E357A mutant channel; conditions: ref [23],[28]; cited from earlier work
Description: as §6

[7] = molecular target: rat ASIC3 channel (homomeric) (rat) (UniProt O35240)

Compound: COc1cc2c(cc1O)[C@H](Cc1ccc(Oc3cc(C[C@@H]4NCCc5cc(OC)c(O)cc54)ccc3O)cc1)NCC2 [lindoldhamine]
- analgesic effect on thermal hypersensitivity caused by inflammation [1]: substantial analgesic effects

Compound: CC[C@H](C)[C@H](N)C(=O)N[C@@H](CO)C(=O)N[C@H](C(=O)N[C@@H](CC(=O)O)C(=O)N1CCC[C@H]1C(=O)N1CCC[C@H]1C(=O)N[C@H]1CSSC[C@@H]2NC(=O)[C@H](CC(N)=O)NC(=O)CNC(=O)[C@H](CCCCN)NC(=O)CNC(=O)[C@H](CC(=O)O)NC(=O)[C@H](CCCNC(=N)N)NC(=O)[C@H](Cc3c[nH]cn3)NC(=O)[C@H](Cc3ccc(O)cc3)NC(=O)[C@H](CSSC[C@@H](C(=O)NCC(=O)N[C@@H](C)C(=O)N[C@H](C(=O)O)C(C)C)NC(=O)CNC(=O)[C@H](Cc3ccc(O)cc3)NC(=O)[C@H](C)NC(=O)[C@H](CC(=O)O)NC(=O)[C@H](Cc3ccc(O)cc3)NC(=O)[C@H](C(C)C)NC2=O)NC(=O)[C@H](Cc2ccccc2)NC(=O)[C@H](CCCNC(=N)N)NC1=O)[C@@H](C)CC [S16K] (H-ISIDPPCRFCYHRDGKGNCVYDAYGCGAV-OH; disulfide 7-19, 10-26)
- Hill slope (nH) ([2]; inhibition of rat ASIC1a, conditioning pH 7.4): 2.86 ± 0.09
- IC50 ([2]; rat ASIC1a, X. laevis oocytes, TEVC, Vh −50 mV, conditioning pH 7.4, peptide 30 s before stimulus, read-out: half-maximal inhibitory concentration (IC50)): 22.7 ± 0.42 µM
- nH ([3]; inhibition of rat ASIC3, conditioning pH 7.4): 2.16 ± 0.24
- IC50 ([3]; rat ASIC3, X. laevis oocytes, TEVC, Vh −50 mV, conditioning pH 7.4, peptide 30 s before stimulus): 35.8 ± 4.03 µM

Compound: Mamb-1 (LKCYQHGKVVTCHRDMKFCYHNTGMPFRNLKLILQGCSSSCSETENNKCCSTDRCNK; ends and bridges not checked; cysteine pairing not given here; UniProt P0DKR6 22-78, looked up)
- modulation of ASIC1-containing channels ([4]; ref [14],[15]): negatively modulates ASIC1-containing channels but by stabilizing the closed state
- effect of D355A channel mutation on inhibitory potential [5]: did not substantially alter the inhibitory potential
- effect of E357A channel mutation on inhibitory potential [6]: did not substantially alter the inhibitory potential
- analgesic effects [1]: demonstrate analgesic effects

Compound: PcTx1 (EDCIPKWKGCVNRHGDCCEGLECWKRRRSFEVCVPKTPKT; ends and bridges not checked; cysteine pairing not given here; UniProt P60514 1-40, looked up)
- modulation of ASIC1a ([4]; ref [11],[12],[13]): selectively modulates ASIC1a and ASIC1a-containing channels by stabilizing the desensitized state
- analgesic effects [1]: demonstrate analgesic effects

Compound: Ugr9a-1 peptide from the venom of the sea anemone Urticina grebelnyi
- IC50 of inhibition of the pH 5.5-evoked current of rASIC3, two-electrode voltage clamp on X. laevis oocytes [7]: 14.2 µM

Compound: O=C(O)C[C@H](C(=O)O)[C@@H](OC(=O)C1=Cc2cc(O)c(O)cc2[C@@H](c2ccc(O)c(O)c2)[C@@H]1C(=O)O[C@@H](C(=O)O)[C@H](CC(=O)O)C(=O)O)C(=O)O [sevanol]
- analgesic effect on thermal hypersensitivity caused by inflammation [1]: substantial analgesic effects
